According to article PMC7413254 (Nature Communications, 2020):
Read-outs that look alike come from different tables or passages of the source.

Tests used:
non-expressing oocytes [1] = experiment: cells; assay type: cell-based, Xenopus laevis; details: non-expressing oocytes, total [3H]CQ transport, normalised to the oocyte type control
Method in brief: (§1)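 PfCRT-expressing and control oocytes: ND96 pH 5.5 → 1.5 h at 27.5 °C → ice-cold ND96 wash → 10% SDS lysis → scintillation count.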

PfCRT^3D7 [2] = target: T1, PfCRT^3D7 (Plasmodium falciparum, UniProt Q8IBZ9); experiment: cell-based; assay type: cell-based; details: PfCRT3D7 oocytes, total [3H]CQ transport, normalised to the oocyte type control
Method in brief: as §1

PfCRT^Dd2 [3] = target: T2, PfCRT^Dd2 (Plasmodium falciparum, UniProt Q9N623, A220S/I356T/K76T/M74I/N326S/N75E/Q271E/R371I); experiment: [3H]CQ uptake into Xenopus oocytes, cis-inhibition by unlabelled solute; assay type: cell-based; details: PfCRTDd2 oocytes, background [3H]CQ accumulation subtracted, normalised to oocyte type control
Method in brief: as §1

PfCRT^Ecu1110 [4] = target: T3, PfCRT^Ecu1110 (Plasmodium falciparum, UniProt Q9N623, A220S/I356L/K76T/N326D); experiment: as above; assay type: cell-based; details: for Uptake of [3H]CQ (% PfCRTEcu1110 control), cis-inhibition / PfCRT-mediated [3H]CQ transport, cis-inhibition (% PfCRTEcu1110 control): PfCRTEcu1110 oocytes; for Uptake of [3H]CQ (% PfCRTEcu1110 control), cis-inhibition: total [3H]CQ transport, normalised to the oocyte type control; for PfCRT-mediated [3H]CQ transport, cis-inhibition (% PfCRTEcu1110 control): background [3H]CQ accumulation subtracted, normalised to oocyte type control; for [3H]CQ transport (% PfCRTEcu1110 control), cis-inhibition, PfCRTEcu1110: PfCRT-mediated component (background subtracted), sheet title says normalised to PfCRTDd2 control, mean ± SEM, SEM
Method in brief: as §1

non-expressing oocytes [5] = assay type: cell-based, Xenopus laevis; details: non-expressing oocytes, total [3H]CQ transport, normalised to the oocyte type control
Method in brief: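 Oocytes (ten per treatment, ≥4 independent frogs/days) were preloaded by injecting VF-6 in 25 nL ND96 at pH 5.0, 5.5, 6.0 or 7.0, or Na^+-free choline buffer, then uptake run 1.5 h, 27.5 °C, ND96 pH 5.5 by default. Internal concentrations assumed ~400 nL oocyte volume.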

PfCRT^3D7 [6] = target: T1, PfCRT^3D7; experiment: cell-based; assay type: cell-based; details: PfCRT3D7 oocytes; for Uptake of [3H]CQ (% PfCRT3D7 control), trans-stimulation: total [3H]CQ transport, normalised to the oocyte type control; for PfCRT-mediated [3H]CQ transport, trans-stimulation (% PfCRT3D7 control): normalised to oocyte type control
Method in brief: (§2)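 Transport measured in Xenopus oocytes expressing the transporters, 1.5 h at 27.5 °C in ND96 pH 5.5 unless noted. For trans-stimulation, VF-6 injected in 25 nL ND96 at pH 5.0–7.0 or Na^+-free (choline) buffer; intracellular levels based on ~400 nL oocyte volume. Ten oocytes per treatment, ≥4 experiments.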

PfCRT^Dd2 [7] = target: T2, PfCRT^Dd2; experiment: cell-based; assay type: cell-based; details: for Uptake of [3H]CQ (% PfCRTDd2 control), trans-stimulation / PfCRT-mediated [3H]CQ transport, trans-stimulation (% PfCRTDd2 control): PfCRTDd2 oocytes; for Uptake of [3H]CQ (% PfCRTDd2 control), trans-stimulation: total [3H]CQ transport, normalised to the oocyte type control; for PfCRT-mediated [3H]CQ transport, trans-stimulation (% PfCRTDd2 control): normalised to oocyte type control; for [3H]CQ transport (% PfCRTDd2 control), trans-stimulation, PfCRTDd2: PfCRT-mediated component (background subtracted), mean ± SEM, SEM
Method in brief: as §2

PfCRT^Ecu1110 [8] = target: T3, PfCRT^Ecu1110; experiment: cell-based; assay type: cell-based; details: for Uptake of [3H]CQ (% PfCRTEcu1110 control), trans-stimulation / PfCRT-mediated [3H]CQ transport, trans-stimulation (% PfCRTEcu1110 control): PfCRTEcu1110 oocytes; for Uptake of [3H]CQ (% PfCRTEcu1110 control), trans-stimulation: total [3H]CQ transport, normalised to the oocyte type control; for PfCRT-mediated [3H]CQ transport, trans-stimulation (% PfCRTEcu1110 control): normalised to oocyte type control; for [3H]CQ transport (% PfCRTDd2 control), trans-stimulation, PfCRTEcu1110: PfCRT-mediated component (background subtracted), sheet title says normalised to PfCRTDd2 control, mean ± SEM, SEM
Method in brief: as §2

PfNT1 = target: T4, PfNT1 (Plasmodium falciparum, UniProt Q8IDM6); experiment: cell-based; assay type: cell-based; details: PfNT1 oocytes, total [3H]CQ transport, normalised to the oocyte type control
T4 construct: expressed in transfected cells; host or cells: Xenopus laevis oocytes (stage V-VI), cRNA-injected
Method in brief: as §2

[9] = [test solute]i = 45 mM (30 mM for some solutes due to solubility)
[10] = [test solute]i = 5 mM (intracellular)
[11] = [test solute]i = 45 mM (intracellular; 30 mM for some solutes due to solubility)
[12] = [test solute]i = 5 mM (injected)

T1 sequence (Q8IBZ9 59-398): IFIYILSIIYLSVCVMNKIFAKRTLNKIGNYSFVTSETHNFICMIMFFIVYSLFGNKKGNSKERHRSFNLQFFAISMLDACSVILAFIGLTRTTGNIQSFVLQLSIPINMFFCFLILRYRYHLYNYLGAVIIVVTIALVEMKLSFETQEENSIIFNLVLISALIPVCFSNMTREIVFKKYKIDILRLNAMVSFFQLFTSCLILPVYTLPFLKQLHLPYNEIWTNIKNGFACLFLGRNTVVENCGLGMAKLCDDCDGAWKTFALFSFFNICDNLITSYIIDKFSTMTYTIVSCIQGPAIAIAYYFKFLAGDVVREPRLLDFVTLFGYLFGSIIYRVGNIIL
T2 sequence (Q9N623 whole entry A220S/I356T/K76T/M74I/N326S/N75E/Q271E/R371I): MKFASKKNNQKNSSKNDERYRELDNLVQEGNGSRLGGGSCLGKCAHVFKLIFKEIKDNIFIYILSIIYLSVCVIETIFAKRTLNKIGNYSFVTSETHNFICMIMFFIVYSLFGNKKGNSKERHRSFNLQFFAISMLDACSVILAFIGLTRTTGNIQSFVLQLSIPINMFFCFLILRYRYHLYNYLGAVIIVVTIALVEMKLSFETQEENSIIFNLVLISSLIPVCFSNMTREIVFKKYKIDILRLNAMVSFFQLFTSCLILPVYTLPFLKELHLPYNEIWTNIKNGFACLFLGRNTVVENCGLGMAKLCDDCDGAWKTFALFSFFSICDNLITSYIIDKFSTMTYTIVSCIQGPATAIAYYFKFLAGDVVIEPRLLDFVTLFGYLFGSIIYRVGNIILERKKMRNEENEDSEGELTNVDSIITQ
T3 sequence (Q9N623 whole entry A220S/I356L/K76T/N326D): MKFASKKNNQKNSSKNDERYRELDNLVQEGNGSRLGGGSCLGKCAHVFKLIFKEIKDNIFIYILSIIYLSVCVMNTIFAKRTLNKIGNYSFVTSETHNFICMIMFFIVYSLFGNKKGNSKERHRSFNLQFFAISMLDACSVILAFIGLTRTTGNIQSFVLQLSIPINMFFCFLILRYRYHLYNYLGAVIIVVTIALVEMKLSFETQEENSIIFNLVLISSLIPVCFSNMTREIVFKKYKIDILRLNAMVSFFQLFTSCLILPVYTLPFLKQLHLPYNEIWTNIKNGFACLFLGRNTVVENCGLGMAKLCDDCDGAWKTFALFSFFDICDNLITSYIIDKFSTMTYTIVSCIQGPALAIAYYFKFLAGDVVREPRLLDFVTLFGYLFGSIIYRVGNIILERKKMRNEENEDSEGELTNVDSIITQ
T4 sequence (Q8IDM6 whole entry): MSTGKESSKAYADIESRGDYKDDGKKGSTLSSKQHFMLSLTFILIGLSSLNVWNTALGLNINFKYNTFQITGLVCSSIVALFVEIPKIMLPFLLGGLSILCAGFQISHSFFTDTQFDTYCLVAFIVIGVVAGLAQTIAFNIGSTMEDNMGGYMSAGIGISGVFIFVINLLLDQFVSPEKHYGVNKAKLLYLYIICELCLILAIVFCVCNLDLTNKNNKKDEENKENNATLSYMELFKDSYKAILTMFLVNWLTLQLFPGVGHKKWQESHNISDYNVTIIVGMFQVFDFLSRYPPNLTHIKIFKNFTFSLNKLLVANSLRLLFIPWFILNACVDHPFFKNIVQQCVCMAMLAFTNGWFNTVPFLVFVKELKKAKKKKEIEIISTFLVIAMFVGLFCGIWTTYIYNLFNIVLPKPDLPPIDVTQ

ASLD [AD-4]
Uptake of [3H]CQ (% non-expressing oocyte control), cis-inhibition (non-expressing oocytes [1]; [test solute] = 0.5 mM): 99 ± 5.3 % non-expressing oocyte control | Uptake of [3H]CQ (% non-expressing oocyte control), cis-inhibition (non-expressing oocytes [1]; [test solute] = 1 mM): 99 ± 5.2 % non-expressing oocyte control | Uptake of [3H]CQ (% non-expressing oocyte control), cis-inhibition (non-expressing oocytes [1]; [test solute] = 2 mM): 99 ± 4.6 % non-expressing oocyte control | Uptake of [3H]CQ (% PfCRT3D7 control), cis-inhibition (PfCRT^3D7 [2]; [test solute] = 0.5 mM): 98 ± 4.4 % PfCRT3D7 control | Uptake of [3H]CQ (% PfCRT3D7 control), cis-inhibition (PfCRT^3D7 [2]; [test solute] = 1 mM): 99 ± 4.7 % PfCRT3D7 control | Uptake of [3H]CQ (% PfCRT3D7 control), cis-inhibition (PfCRT^3D7 [2]; [test solute] = 2 mM): 99 ± 6.1 % PfCRT3D7 control | PfCRT-mediated [3H]CQ transport, cis-inhibition (% PfCRTDd2 control) (PfCRT^Dd2 [3]; [test solute] = 0.5 mM): 31 ± 1.9 % PfCRTDd2 control | PfCRT-mediated [3H]CQ transport, cis-inhibition (% PfCRTDd2 control) (PfCRT^Dd2 [3]; [test solute] = 1 mM): 22 ± 0.8 % PfCRTDd2 control | PfCRT-mediated [3H]CQ transport, cis-inhibition (% PfCRTDd2 control) (PfCRT^Dd2 [3]; [test solute] = 2 mM): 12 ± 0.3 % PfCRTDd2 control | Uptake of [3H]CQ (% PfCRTEcu1110 control), cis-inhibition (PfCRT^Ecu1110 [4]; [test solute] = 0.5 mM): 49 ± 9.7 % PfCRTEcu1110 control | Uptake of [3H]CQ (% PfCRTEcu1110 control), cis-inhibition (PfCRT^Ecu1110 [4]; [test solute] = 1 mM): 32 ± 8.5 % PfCRTEcu1110 control | Uptake of [3H]CQ (% PfCRTEcu1110 control), cis-inhibition (PfCRT^Ecu1110 [4]; [test solute] = 2 mM): 26 ± 5.6 % PfCRTEcu1110 control | PfCRT-mediated [3H]CQ transport, cis-inhibition (% PfCRTEcu1110 control) (PfCRT^Ecu1110 [4]; [test solute] = 0.5 mM): 42 ± 2.1 % PfCRTEcu1110 control | PfCRT-mediated [3H]CQ transport, cis-inhibition (% PfCRTEcu1110 control) (PfCRT^Ecu1110 [4]; [test solute] = 1 mM): 28 ± 3.4 % PfCRTEcu1110 control | PfCRT-mediated [3H]CQ transport, cis-inhibition (% PfCRTEcu1110 control) (PfCRT^Ecu1110 [4]; [test solute] = 2 mM): 21 ± 1.1 % PfCRTEcu1110 control | [3H]CQ transport (% PfCRTEcu1110 control), cis-inhibition, PfCRTEcu1110 (PfCRT^Ecu1110 [4]; [test solute] = 0.5 mM): 13 ± 0.2 % PfCRTEcu1110 control | [3H]CQ transport (% PfCRTEcu1110 control), cis-inhibition, PfCRTEcu1110 (PfCRT^Ecu1110 [4]; [test solute] = 2 mM): 6.0 ± 0.03 % PfCRTEcu1110 control | Uptake of [3H]CQ (% non-expressing oocyte control), trans-stimulation (non-expressing oocytes [5]; [test solute]i = 5 mM): 100 ± 4.9 % non-expressing oocyte control | Uptake of [3H]CQ (% non-expressing oocyte control), trans-stimulation (non-expressing oocytes [5]; [9]): 98 ± 2.6 % non-expressing oocyte control | Uptake of [3H]CQ (% PfCRT3D7 control), trans-stimulation (PfCRT^3D7 [6]; [test solute]i = 5 mM): 99 ± 3.7 % PfCRT3D7 control | Uptake of [3H]CQ (% PfCRT3D7 control), trans-stimulation (PfCRT^3D7 [6]; [9]): 100 ± 2.6 % PfCRT3D7 control | PfCRT-mediated [3H]CQ transport, trans-stimulation (% PfCRT3D7 control) (PfCRT^3D7 [6]; [10]): 97 ± 2.0 % PfCRT3D7 control | PfCRT-mediated [3H]CQ transport, trans-stimulation (% PfCRT3D7 control) (PfCRT^3D7 [6]; [11]): 98 ± 3.3 % PfCRT3D7 control | Uptake of [3H]CQ (% PfCRTDd2 control), trans-stimulation (PfCRT^Dd2 [7]; [test solute]i = 5 mM): 98 ± 3.3 % PfCRTDd2 control | Uptake of [3H]CQ (% PfCRTDd2 control), trans-stimulation (PfCRT^Dd2 [7]; [9]): 97 ± 3.9 % PfCRTDd2 control | PfCRT-mediated [3H]CQ transport, trans-stimulation (% PfCRTDd2 control) (PfCRT^Dd2 [7]; [10]): 96 ± 2.9 % PfCRTDd2 control | PfCRT-mediated [3H]CQ transport, trans-stimulation (% PfCRTDd2 control) (PfCRT^Dd2 [7]; [11]): 95 ± 2.6 % PfCRTDd2 control | [3H]CQ transport (% PfCRTDd2 control), trans-stimulation, PfCRTDd2 (PfCRT^Dd2 [7]; [12]): 96 ± 2.9 % PfCRTDd2 control | [3H]CQ transport (% PfCRTDd2 control), trans-stimulation, PfCRTDd2 (PfCRT^Dd2 [7]; [9]): 95 ± 2.6 % PfCRTDd2 control | Uptake of [3H]CQ (% PfCRTEcu1110 control), trans-stimulation (PfCRT^Ecu1110 [8]; [test solute]i = 5 mM): 100 ± 3.2 % PfCRTEcu1110 control | Uptake of [3H]CQ (% PfCRTEcu1110 control), trans-stimulation (PfCRT^Ecu1110 [8]; [9]): 99 ± 3.2 % PfCRTEcu1110 control | PfCRT-mediated [3H]CQ transport, trans-stimulation (% PfCRTEcu1110 control) (PfCRT^Ecu1110 [8]; [10]): 98 ± 4.1 % PfCRTEcu1110 control | PfCRT-mediated [3H]CQ transport, trans-stimulation (% PfCRTEcu1110 control) (PfCRT^Ecu1110 [8]; [11]): 97 ± 2.9 % PfCRTEcu1110 control | [3H]CQ transport (% PfCRTDd2 control), trans-stimulation, PfCRTEcu1110 (PfCRT^Ecu1110 [8]; [12]): 30 ± 1.7 % PfCRTEcu1110 control | [3H]CQ transport (% PfCRTDd2 control), trans-stimulation, PfCRTEcu1110 (PfCRT^Ecu1110 [8]; [9]): 29 ± 1.4 % PfCRTEcu1110 control | Uptake of [3H]CQ (% PfNT1 control), trans-stimulation (PfNT1; [test solute]i = 5 mM): 99 ± 2.5 % PfNT1 control | Uptake of [3H]CQ (% PfNT1 control), trans-stimulation (PfNT1; [9]): 96 ± 2.2 % PfNT1 control
